Entries after “also recorded” stand apart in the source; their conditions may differ.
Legend:
[1] = tested on: NIH3T3 cells; assay: TNF-α/CHX-induced apoptosis, PI staining and flow cytometry; assay type: cell-based, murine; details: 12 hr
Procedure: (§1) In panel A, propidium iodide (PI) staining and flow cytometry analysis were performed to determine apoptosis levels. In panels B-C, NIH3T3 cells containing vector, KSHV vFLIP, or its mutants were transfected with an NF-κB luciferase reporter construct and a control renilla luciferase plasmid, pRL-SV40. At 48 hr post-transfection, luciferase activity was measured with a luminometer using a dual luciferase assay kit and normalized with renilla luciferase activity to determine transfection efficiency (B). […] At 48 hr post-transfection, luciferase activity was measured as described above (E).
(§2) Propidium iodide (PI) staining and flow cytometry analysis were performed to determine apoptosis levels (FIG. 3A). Alternatively, NIH3T3 cells containing vector, KSHV vFLIP, or its mutants were transfected with an NF-κB-luciferase reporter construct and a control renilla luciferase plasmid, pRL-SV40 (Promega). At 48 hr post-transfection, luciferase activity was measured with a luminometer using a dual luciferase assay kit (Promega) and normalized with renilla luciferase activity to determine transfection efficiency (FIG. 3B).

[2] = tested on: BCBL1 cells; assay: Protection of TREX-BCBL cells from rapamycin- or zVAD-induced growth suppression and autophagic death; assay type: cell-based, human; details: ectopic expression in BCBL1 cells; 50 nM rapamycin or 50 μM zVAD, 6 days
Procedure: The effect of vFLIP on autophagy was tested in a KSHV-infected BCBL1 cell line.

[3] = tested on: TREX-BCBL cells; assay: Autophagy and cell death in TREX-BCBL-vFLIP cells; details: for suppression of rapamycin-induced autophagy (and cell death) in TREX-BCBL cells: doxycycline-induced vFLIP, 2 μM rapamycin 12 hr
Procedure: Subsequently, autophagy was quantified as means (±SD) of the combined results from three independent experiments. 2 μM rapamycin treatment was included as a control. For panels B (right), TREX-BCBL-Vector and TREX-BCBL-vFLIP cells were treated with Doxycycline for 24 hr, followed by incubation with 0, 30, or 50 μM of TAT only, the K-α2, or the K-α4 peptide (top), or TAT only, the C-α2, or the C-α4 peptide (bottom) for an additional 12 hr and a BC Z2 CS analyzer used to determine cell death (as a percentage). […] For panel E, TREX-BCBL-Vector and TREX-BCBL-vFLIP cells were treated with the K-α and the K-α4 (30 μM each) peptide for 12 hr, followed by immunoblotting with αLC3 and αactin. […] For panel G, various human lymphoma cells were treated with 0, 30, or 50 μM of the K-α2 peptide (left) or the K-α4 peptide (right) for 12 hr and cell death (as a percentage) was determined using a BC Z2 CS Analyzer. For panel H, KSHV-infected BCBL1 cells were incubated with various combinations of rapamycin (25 nM), the K-α2 peptide (20 μM), and the K-α4 peptide (20 μM). A BC Z2 CS Analyzer was used to determine cell numbers (left) and cell death at 6 days (right).

[4] = target: T1, Atg3 (Homo sapiens, UniProt Q9NT62); assay: Co-immunoprecipitation and GST pulldown with Atg3 in HEK293T cells; assay type: binding; details: HEK293T cells, 48 hr post-transfection
T1 construct: expressed in transfected cells; host or cells: HEK293T
From the text: (§3) For panel A, at 48 hr post-transfection with Flag-vFLIP and/or GFP-Atg3 (left) or Flag-vFLIP and/or GST-Atg3 (middle), HEK293T cells were used for immunoprecipitation with αFlag, αGFP, or GST pulldown, followed by immunoblotting with the indicated antibodies. For panel A (right), HEK293T cells transfected with FIag-vFLIP were used for immunoprecipitation with mouse IgG or αFlag, followed by immunoblotting with αAtg3. Panel B (top) depicts a schematic diagram of human Atg3. N,N-terminus; FR, flexible region; C, C-terminus. […] Panel C (top) depicts a schematic diagram of KSHV vFLIP. […] For panel F, NIH3T3-Vector and NIH3T3-vFLIP cells were treated with 2 nM rapamycin for 12 hr and used for IP with αAtg3, followed by immunoblotting with αLC3. In panels A-F, whole cell lysates (WCLs) were used for immunoblotting with the indicated antibodies to show expression.
(§4) WCLs were used for immunoblotting with αFlag or αGST. […] WCLs were used for immunoblotting with αFlag or αGST.
(§5) The ability of FLIP to bind to Atg3 was evaluated by co-immunoprecipitation assay. HEK293T cells were transfected with Flag-vFLIP and/or GFP-Atg3 or Flag-vFLIP and/or GST-Atg3, and at 48 hr post-transfection, cells were harvested and lysed in an NP40 buffer supplemented with complete protease inhibitor cocktail (Roche). After pre-clearing with protein A/G agarose beads for 1 hr at 4° C., whole-cell lysates were used for immunoprecipitation with αFlag, αGFP, or GST. Generally, 1-4 μg of the antibody was added to 1 ml of the cell lysate and incubated at 4° C. for 8 to 12 hr. The immunoprecipitates were then washed extensively with a lysis buffer and eluted by boiling them with an SDS loading buffer for 5 min. Following immunoprecipitation, samples were treated to immunoblot using αAtg3 (1:500) (Novus).
(§6) The overall structure of yeast Atg3 has a unique hammer-like shape with the N-terminal and C-terminal regions discretely responsible for Atg7 and Atg8 (equivalent to mammalian LC3) binding, respectively. (Yamada et al. (2007) J. Biol. Chem. 282:8036-8043). Based on the structure of yeast Atg3, human Atg3 deletion mutants fused with a GST mammalian expression vector were constructed: GST-Atg31-93, GST-Atg3193-268, GST-Atg3268-315, and GST-Atg3193-315.

[5] = tested on: Atg3; assay: as above; assay type: binding, human; details: GST-Atg3 deletion mutants, GST pulldown
From the text: as §3, §4, §5, §6

[6] = tested on: Atg3-LC3 interaction; assay: Competition with LC3 for Atg3 binding; details: NIH3T3 cells, normal conditions; weakly recovered with 2 nM rapamycin 12 hr
From the text: as §3
(§7) Due to identical Atg3 binding patterns seen in vFLIP and LC3, the ability of vFLIP to directly compete with LC3 for Atg3 binding was tested. HEK293T cells were transfected with GST-Atg3 and GFP-LC3 along with increasing amount of Flag-vFLIP. At 48 hr post-transfection, GST pulldown was performed as described above, followed by immunoblotting with αGFP or αFlag.

[7] = target: T2, Atg3-LC3 interaction (Homo sapiens, UniProt Q9NT62); assay: Competition with LC3 for Atg3 binding; details: HEK293T cells, GST-Atg3 and GFP-LC3
T2 construct: expressed in transfected cells; host or cells: HEK293T
From the text: as §3, §7

[8] = tested on: NIH3T3 cells; assay: GFP-LC3 autophagy assay in NIH3T3 cells expressing FLIP; assay type: cell-based, murine; details: ectopic expression in NIH3T3 cells, Hank's solution 4 hr or 2 μM rapamycin 3 hr
[9] = tested on: HCT116, HaCat, and MEF cells; assay: GFP-LC3 autophagy assay in HCT116, HaCat and MEF cells; assay type: cell-based; details: 2 μM rapamycin 3 hr
[10] = tested on: NF-κB; assay: NF-κB luciferase reporter assay in NIH3T3 cells; assay type: cell-based, murine; details: 48 hr post-transfection
Procedure: as §1, §2

[11] = tested on: LC3-II; assay: Anti-LC3 immunoblotting of starved NIH3T3 cells expressing FLIP; assay type: cell-based, murine; details: starvation, Hank's solution 4 hr
Procedure: The arrows indicate autophagosomes.
During autophagy, an LC3 precursor (LC3-I) undergoes cleavage and lipidation to yield its processed form (LC3-II) (Mizushima et al. (2008) Nature 451:1069-1075). Immunoblotting was performed with an antibody against LC3 to further measure autophagic activity. […] Polypeptides were resolved by SDS-polyacrylamide gel electrophoresis (PAGE) and transferred to a PVDF membrane (Bio-Rad). […] The proteins were visualized by a chemiluminescence reagent (Pierce) and detected by a Fuji Phosphor Imager. […] Finally, the ability of FLIP to block autophagy in multiple cell types was evaluated.

T2 sequence (Q9NT62 whole entry): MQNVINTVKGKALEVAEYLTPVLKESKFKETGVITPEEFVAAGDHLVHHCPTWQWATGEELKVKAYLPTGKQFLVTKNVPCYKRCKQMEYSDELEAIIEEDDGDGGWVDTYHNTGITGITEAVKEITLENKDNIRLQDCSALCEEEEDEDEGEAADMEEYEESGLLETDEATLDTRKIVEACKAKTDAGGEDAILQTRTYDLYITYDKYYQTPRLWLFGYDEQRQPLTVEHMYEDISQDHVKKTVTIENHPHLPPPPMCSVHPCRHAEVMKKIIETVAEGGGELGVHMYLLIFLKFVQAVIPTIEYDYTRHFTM
T1 sequence (Q9NT62 whole entry): as above

Substance: KSHV vFLIP: viral FLIP of Kaposi's sarcoma-associated herpes virus, full-length protein
- blocking of TNFα-induced apoptosis [1]: anti-apoptosis
- protection from rapamycin- or zVAD-induced growth suppression and autophagic death [2]: almost completely blocked rapamycin- or zVAD-induced growth suppression and autophagic death
- inhibition of peptide-induced autophagy and cell death ([3]; TREX-BCBL-vFLIP cells treated with FLIP peptides): minimal
- suppression of rapamycin-induced autophagy (and cell death) in TREX-BCBL cells [3]: readily blocked rapamycin-induced autophagy and cell death
- suppression of rapamycin-induced autophagy (and cell death) in TREX-BCBL cells ([3]; listed as vFLIP): extensively suppressed rapamycin-induced autophagy
- Atg3 binding [4]: strongly interacted with endogenously and exogenously expressed Atg3
- Atg3 regions bound (Atg3 deletion mutants) [5]: independently bound either the aa193-268 or aa268-315 region of the C-terminal of Atg3
- endogenous Atg3 and LC3 interaction [6]: dramatic reduction of endogenous Atg3 and LC3 interaction
- Atg3-LC3 interaction with increasing vFLIP expression [7]: marked decrease of Atg3-LC3 interaction
- suppression of starvation- and rapamycin-induced autophagy (GFP-LC3 puncta) [8]: strongly suppressed starvation- and rapamycin-induced autophagy; also recorded: anti-autophagy
- suppression of starvation- and rapamycin-induced autophagy (GFP-LC3 puncta) ([8]; listed as vFLIP): effectively suppressed starvation- and rapamycin-induced autophagy
- blocking of autophagy in several cell types [9]: efficiently blocked autophagy in a number of cell types
- NF-κB activation [10]: carried out NF-κB activation
- processed LC3-II [11]: little or no processed LC3-II

— patent US20110224133A1 (University of Southern California, priority 2008, published 2011)
